Measured values from US20080039410A1, “Inositol 1,4,5-Trisphosphate Receptor Mutants and Uses Thereof” (priority 2004, published 2008).
“Also recorded” adds a separate entry of the source.

What was measured:
S2+ InsP3R-1 = experiment: CCh concentration-response of Ca2+ release in Dt-40 3ko cells expressing m3R and S2+ InsP3R-1 constructs; assay type: cell-based, rat; settings: for maximum peak Δ response to CCh: Fura-2 340/380 ratio; for fold change from WT (CCh EC50): S2 + InsP3R-1 constructs, Table 2; for EC50: fit of normalized initial peak, read-out: EC50 for CCh-induced Ca^2+ release
From the text: The rat S2^+ InsP3R-1 in the expression plasmid pIRES-GFP was digested with the restriction endonuclease SalI. The overhang created by digestion was blunted by using T4 polymerase. An EcoRI linker was then ligated onto the blunted ends of the construct. The entire receptor DNA was excised from the plasmid using EcoRI and ligated into the plasmid MXT-1. The region containing the S2^− splice variant and potential PKA phosphorylation sites was excised from its backbone in pCDNA 3.1+ by RsrII and KasI and ligated into the InsP3R construct in MXT-1. The potential PKA phosphorylation sites Ser-1589 and Ser-1755 were mutated, individually in both splice variants and together in the S2^− splice variant, to alanines or glutamates by using sequential PCR mutagenesis. The outside primers used for the mutagenesis reaction flanked the restriction sites RsrII and KasI. Following mutation, the resulting fragments were cut with RsrII and KasI and inserted into the InsP3R-1 backbone at the corresponding sites. The mutations were confirmed by Big Dye fluorescent sequencing. Mutated receptor DNAs were excised from MXT-1 by using EcoRI and ligated into the mammalian expression vector pGW (provided by Dr. David Yue, Johns Hopkins University). Orientation was confirmed by using restriction enzyme digestion. Mutants were named based on the splice variant, either S2+ or S2− followed by the amino acid present at position 1589 and 1755. Thus, a mutation in S2^+ InsP3R-1 S1755E is designated, “S2+SE,” and in InsP3R-1 […] S1755A is designated “S2^−SA”. Similarly, an S2− InsP3R-1 with mutations in both S1589E and S1755E is designated “S2−EE”. The numbering of residues is based on the full-length rat InsP3R-1.
Dt-40 cells lacking all three InSP3 receptor subtypes were transfected by using electroporation at 350 V and 950 microfarads (4-mm gap cuvette). 2×10^7 cells were co-transfected with 25 μg of the InsP3R-1 cDNA, 25 μof the muscarinic type 3 (m3R) receptor DNA, and 4 μg of the red fluorescent protein plasmid pHcRed1-N1 (Clontech). Cells were incubated with DNA in 500 μl of Opti-MEM media (Invitrogen) on ice for 10 min. The cell/DNA mixture was electroporated, incubated on ice for 30 min, increased to 5 ml with Opti-MEM, and placed in a 5% CO2 incubator at 39° C. for 5 h. The cells were then centrifuged and resuspended in 12 ml of complete RPMI media (Invitrogen). Transfection efficiency was typically ˜20%. Experiments were performed within 32 h of transfection.
Transfected Dt-40 3ko cells were washed once in a HEPES-buffered physiological saline solution (HEPES-PSS) containing (in mM) 5.5 glucose, 137 NaCl, 0.56 MgCl2, 4.7 KCl, 1 Na2HPO4, 10 HEPES (pH 7.4), 1.2 CaCl2, and 1% w/v bovine serum albumin. Cells were then resuspended in bovine serum albumin HEPES-PSS with 1 μM Fura-2 (AM), placed on a 15-mm glass coverslip in a low volume perfusion chamber, and allowed to adhere for 30 min at room temperature. Cells were perfused continuously for 10 min with HEPES-PSS before experimentation to allow complete Fura-2 de-esterification. A field of cells for each experiment was chosen that contained a wide range of transfection efficiency based upon the intensity of red fluorescence emitted when excited at 560 nm. Individual cells that had emission gray levels between 1500 and 2500 were subsequently chosen to standardize expression levels. [Ca^2+]i imaging was performed essentially as described previously by using an inverted epifluorescence Nikon microscope with a 40× oil immersion objective lens (numerical aperture, 1.3) (100). Cells were excited alternately with light at 340 and 380±10 nm bandpass filters (Chroma, Rockingham, Vt.) using a monochrometer (TILL Photonics, Pleasanton, Calif.). Fluorescence images were captured and digitized with a digital camera driven by TILL Photonics software. Images were captured every 2 s with an exposure of 2 ms and 4 by 4 binning. 340/380 ratio images were calculated online and stored immediately to a hard disk. […]

S2− InsP3R-1 = experiment: Ca2+ oscillations after α-IgM antibody stimulation of Dt-40 3ko cells expressing S2− constructs; assay type: cell-based, rat; settings: for Ca^2+ signal pattern: 250 ng/ml α-IgM antibody (threshold)
From the text: Cells transfected with WT and mutant S2− isoforms were stimulated with varying concentrations of an α-IgM antibody (Southern Biotechnology Associates, Inc., Birmingham, Ala.). Infrequent Ca^2+ oscillations were produced presumably through B cell receptor cross-linking, activation of phospholipase C-γ, and subsequent production of InsP3.
In many nonelectrically excitable cell types, the physiological mode of Ca^2+ signaling is through the generation of Ca^2+ oscillations (1, 108). Moreover, it is a generally held view that the spatial and temporal properties of Ca^2+ oscillations make an important contribution to defining the fidelity and specificity of Ca^2+ signaling. In many current models addressing the mechanism underlying Ca^2+ oscillations, a key feature is the regulation of Ca^2+ release through InsP3R. Experiments were then designed to assess the consequences of InsP3R-1 phosphorylation (expressed in isolation) on the initiation and generation of Ca^2+ oscillations. An α-IgM antibody was chosen to stimulate and to initiate Ca^2+ oscillations through activation of the endogenous B cell receptor, phospholipase C-γ activation, and the formation of InsP3. Dt-40 3ko cells expressing either S2−WT or S2−EE to mimic PKA phosphorylation of the InsP3R-1 were stimulated with various concentrations of α-IgM antibody as illustrated by the selection of representative traces in FIG. 24. […] This latter observation presumably reflects the fact that the frequency of oscillations is primarily defined by mechanisms such as Ca^2+ feedback (109) rather than the absolute sensitivity of the InsP3R-1 to InsP3 within a defined range. […] Given the almost ubiquitous expression of various forms of InsP3R-1, this is likely a generally important phenomenon. […] These include modulation of InSP3 binding, an idea supported by measurements of InsP3R binding in hepatocytes (112) (presumably S2− InsP3R-1 and InsP3R-2). In these studies the apparent affinity of InsP3 binding was enhanced ˜2-fold at resting [Ca^2+], and the [Ca^2+] necessary for half-maximal stimulation of InsP3 binding was reduced. In contrast, a study of recombinant S1−S2+InsP3R-1 expressed in SF9 cells and reconstituted into lipid bilayers has reported a similar increase in InsP3R sensitivity to InsP3 but that the bell-shaped Ca^2+ sensitivity of channel opening is not altered following phosphorylation of the InsP3R-1 (23). These findings indicate that modulation of the Ca^2+ sensitivity of channel activity is unlikely to account for the increased apparent sensitivity of the receptor, at least in this form of the InsP3R-1. There are a number of alternative mechanisms for altering InsP3R-1 sensitivity are conceivable. For example, phosphorylation of the receptor could alter the gating of the channel directly. In addition, phosphorylation might secondarily modulate the receptor by regulation of the association of regulatory factors such as proteins or adenine nucleotides (113-115).

Row | Substance | maximum peak Δ response to CCh (S2+ InsP3R-1) | fold change from WT (CCh EC50) (S2+ InsP3R-1) | EC50 (S2+ InsP3R-1) | fold more sensitive than S2+WT (CCh-induced Ca^2+ release) (S2+ InsP3R-1) | fold more sensitive than nonphosphorylatable S2+SA (S2+ InsP3R-1) | sensitivity of CCh-induced Ca^2+ release relative to other constructs (S2+ InsP3R-1) | Ca^2+ signal pattern (S2− InsP3R-1) | latency before the increase in Ca^2+ versus S2−WT (S2− InsP3R-1; 500 ng/ml α-IgM antibody) | magnitude of the initial transient versus WT (S2− InsP3R-1; 500 ng/ml α-IgM antibody) | latency, frequency or initial peak magnitude versus S2−WT (S2− InsP3R-1; 1 μg/ml α-IgM antibody)
1 | S2+ES: S2+ InsP3R-1, long splice variant with S1589E | 0.59±0.2 ratio units | 1.3 fold | 0.0237 ± 0.0012 µM | – | – | – | – | – | – | –
2 | S2+SE: phosphomimetic S2+ InsP3R-1, long splice variant of S1755E | 0.59±0.1 ratio units | 8.9 fold | 0.0036 ± 0.0002 µM | ~9 fold | ~32 fold | increased sensitivity | – | – | – | –
3 | S2−EE: phosphomimetic S1589E/S1755E mutant of the short splice variant | – | – | – | – | – | – | repetitive Ca^2+ transients following a much shorter latency; also recorded: multiple Ca^2+ transients | significantly shorter | significantly larger | indistinguishable
4 | S2−WT: wild-type rat type-1 InsP3 receptor, peripheral short S2− splice variant (SEQ ID NO: 17) | – | – | – | – | – | – | single small increase in [Ca^2+]i after a long latency; also recorded: single Ca^2+ transient after a long latency | – | – | –
